Series [1] deals with T1, human AT2R (Homo sapiens, UniProt P50052).
T1 construct: Tb (terbium) label on the receptor; expressed in transfected cells
T1 sequence (P50052 1-363): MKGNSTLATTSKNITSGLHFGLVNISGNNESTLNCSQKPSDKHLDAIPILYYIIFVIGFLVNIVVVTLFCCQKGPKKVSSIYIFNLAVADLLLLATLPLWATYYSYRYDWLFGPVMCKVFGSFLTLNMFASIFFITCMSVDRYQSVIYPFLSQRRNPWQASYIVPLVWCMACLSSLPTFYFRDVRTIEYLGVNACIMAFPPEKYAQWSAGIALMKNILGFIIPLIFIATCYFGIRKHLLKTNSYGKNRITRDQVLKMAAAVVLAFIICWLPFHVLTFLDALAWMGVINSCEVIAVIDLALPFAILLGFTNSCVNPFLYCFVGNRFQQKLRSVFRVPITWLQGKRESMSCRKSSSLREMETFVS
The experiment in a line: Antagonistic activity against human AT2R ligand binding (Tag-lite HTRF). Conditions: Tb-labeled-AT2R cells, red agonist fluorescent ligand, 1 hour at 25° C. The text has this: Test Example 1 Test of the antagonistic activity of the compounds of the present invention against human AT2R ligand binding.
Angiotensin II Type-2 receptor (ATR) is involved in neuronal differentiation and regeneration, cell proliferation and angiogenesis, and maintenance of bone mass. ATR inhibitors can be used for treating pain and abnormal neuroregenerative diseases, inhibiting the proliferation of tumor cells and increasing bone mass. In the following methods, the degree of antagonism of the compounds of the present invention against AT2R was studied through AT2 ligand binding assay.
According to standard methods, test compounds (compound 1m and compounds 1-4) were respectively dissolved in dimethyl sulfoxide to be prepared into stock solutions of 10 mM.
(2) The test compound was subjected to 5-fold dilution with a total of 10 concentration gradients;
(3) The diluted compound in step (2) was transferred to a working plate (3657, Corning) at 160 nL/well, 200 g at room temperature for 1 minute; […]
(11) The reaction plate was centrifuged at 200 g for 1 minute at room temperature, then kept still at room temperature 25° C. for 1 hour, and centrifuged at 200 g for 1 minute at room temperature. Data were collected using Envision HTRF microplate reader, and IC50 was calculated using nonlinear fitting formula.

Series [2] is described as follows: Solubility test. The format is physicochemical. How it is done:
According to the conventional method for solubility assay, the solubility of the compounds of the present invention in the following four different systems was tested: phosphate salt buffer PBS (pH7.4), methanol, 0.1% HCl and water.

Series [3] can be described thus: Pharmacokinetic assay in SD rats. As to conditions: PO 60 mg/kg; for AUC(0-inf) / Cmax / half-life / MRT: both sexes, Sprague-Dawley, rat, plasma; for AUC(0-inf): read-out: Area under the curve AUC0-∞; for Cmax: read-out: Blood concentration Cmax; for half-life: read-out: Half life T½ (converted); for MRT: read-out: Residence time MRT. The format is in vivo. How it is done: SD rats were taken as the test animals, and the compounds of the present invention were administrated to the rats by intravenous injection or gavage. Then the drug concentrations in the plasma at different times were measured using LC/MS/MS method to study the pharmacokinetic characteristics of the compounds of the present invention in rats.
Six healthy adult Sprague Dawley (SD) male rats were purchased from Vital River Laboratory Animal Technology Co., Ltd.
76.32 mg of compound 1m was weighed and dissolved in 12.72 mL of 0.5% sodium carboxymethyl cellulose (CMC-Na), the mixture was mixed by vortex for 1 minute until the compound was completely suspended, and the final prepared concentration was 6 mg/mL;
76.61 mg of compound 1 was weighed and dissolved in 12.768 mL of 0.5% sodium carboxymethyl cellulose (CMC-Na), the mixture was mixed by vortex for 1 minute until the compound was completely suspended, and the final prepared concentration was 6 mg/mL.
Compounds 2 to 4 were weighed and dissolved in an appropriate amount of 0.5% sodium carboxymethyl cellulose (CMC-Na), the mixture was mixed by vortex for 1 minute until the compound was completely suspended, and the final prepared concentration was 6 mg/mL.
Six healthy adult SD rats, half male and half female, were divided into 2 groups, 3 rats in each group. The rats were fasted overnight, and then intragastrically administered (po) with the compound 1m or compounds 1 to 4 of the present invention at a dose of 60 mg/kg.
About 0.25 mL of blood was collected from the jugular vein before the administration and 0.25 hours, 0.5 hours, 1 hour, 2 hours, 4 hours, 6 hours, 8 hours and 24 hours after the administration, and heparin sodium was used for anticoagulation. The blood samples were placed on ice after collection, and then centrifuged to separate the plasma (centrifugation conditions: 7000 rpm, 5 minutes). The collected plasma was stored below −70° C. until analysis.
300 μL of methanol (comprising internal standard working solution, Loratadine 800 ng/mL) was added to 100 μL of plasma sample, then the mixture was mixed by vortex for 5 minutes, then the obtained mixture was centrifuged at 10,000 rpm for 10 minutes, and 1 μL of the resulting mixture was taken and subjected to LC-MS/MS analysis.

Where [4] appears, read: methanol, organic solvent or mixture.

Values after ≈ are worked out from the molar mass of the structure shown.

Consider `COc1ccc(COc2c(OC)ccc3c2C[C@@H](C(=O)[O-])N(c2nc4ccc(F)cc4o2)C3)nc1.[Na+]` [Compound 1], for which the IC50 (usually the concentration that inhibits the measured activity by half) in series [1] is 6 nM. Moreover, in series [2] (aqueous buffer, PBS (pH 7.4)), the solubility (in general, how much of the substance goes into solution per volume) amounted to 8690 µg/mL. Moreover, the solubility in series [2] (setting [4]) was more than 10000 µg/mL. Besides, the solubility in series [2] (water) amounted to 6410 µg/mL. In series [3] (versus free acid compound 1m), the “Increase of area under the curve compared with compound 1m” value worked out at 14 times and the “Increase of plasma concentration compared with compound 1m” value is given as “more than 50 times”. In series [3], the AUC(0-inf) was determined as 328 ± 53.2 µg·h/mL; the Cmax came to 127 ± 12.7 µg/mL; the half-life (usually the time needed for the level to fall by half in the phase considered) was 214 ± 51 min; the MRT (as a rule, a mean duration of stay, worked out from the concentration-time curve) was 2.59 ± 0.41 h.

The molecule `COc1ccc(COc2c(OC)ccc3c2C[C@@H](C(=O)O)N(c2nc4ccc(F)cc4o2)C3)nc1` [Compound 1m] registered a solubility in series [2] (aqueous buffer, PBS (pH 7.4)) of 150 µg/mL (≈ 313 µM). The solubility in series [2] (setting [4]) came out at 340 µg/mL (≈ 709 µM). This molecule also came in with a solubility in series [2] (water) of 30 µg/mL (≈ 62.6 µM). In addition, in series [3], the AUC(0-inf) was determined as 22.2 ± 9.1 µg·h/mL, the Cmax was 2.4 ± 0.53 µg/mL, the half-life was 224 ± 75 min and the mean residence time (MRT) was 6.13 ± 1.13 h.

For the origin of these results see patent US12606551B2, “Salt of tetrahydroisoquinoline derivative, preparation method therefor, and medical use thereof” (ZHEJIANG HISUN PHARMACEUTICAL CO., LTD., priority 2020, dated 2026).
